In PubChem BioAssay AID743506 (Broad Institute, 2014) one finds IC50 data, which are given here for 5 compounds.

By IC50 is commonly meant the point on the concentration scale where inhibition reaches its midpoint.

Each structure is given as a SMILES string. Activity calls are given as the source filed them.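 How the source made its calls: active means compounds that block the bursicon-driven reporter signal with IC50 below 35000 nM; inactive means the rest.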

This experiment concerns the target Bursicon receptor (LGR2/rickets), Drosophila melanogaster. As to the kind of experiment: LGR2 bursicon receptor antagonists, dose response, cell-based, HEK293, CRE-luciferase, beta-gal normalized, dry powder, set 3 (AID 743506). The note with it: bursicon-stimulated, 4 h.
For `C[C@H](CO)N1C[C@H](C)[C@H](CN(C)C(=O)Nc2ccc3c(c2)OCO3)OCCCC[C@H](C)Oc2ccc(NC(=O)C3CCCCC3)cc2C1=O`, the IC50 is < 35 µM. The figure for `C[C@H](CO)N1C[C@H](C)[C@H](CN(C)C(=O)Nc2ccccc2)OCCCC[C@H](C)Oc2ccc(NC(=O)C3CCCCC3)cc2C1=O` is < 35 µM.

Consider `COc1ccc(NC(=O)N(C)C[C@@H]2OCCCC[C@H](C)Oc3ccc(NC(=O)C4CCCCC4)cc3C(=O)N([C@H](C)CO)C[C@@H]2C)cc1`, for which the IC50 was < 35 µM.

Regarding `C[C@@H]1CCCCO[C@H](CN(C)C(=O)Nc2ccc(F)cc2)[C@H](C)CN([C@@H](C)CO)C(=O)c2cc(NC(=O)C3CCCCC3)ccc2O1`, the IC50 was > 35 µM (inactive). Regarding `C[C@H](CO)N1C[C@H](C)[C@H](CN(C)C(=O)Nc2ccc(F)cc2)OCCCC[C@H](C)Oc2ccc(NC(=O)C3CCCCC3)cc2C1=O`, the IC50 was < 35 µM.
